The results in this text go back to US9487504B2, “Imidazolyl analogs as syk inhibitors” (Merck Sharp & Dohme Corp., priority 2012, dated 2016).

The structures appear in SMILES notation. pIC50: −log10 of the molar value. Where only a bound is given, the exact number is not on record here.

For the first assay, the target named is T1, recombinant human GST-Syk (Homo sapiens, UniProt P43405).
T1 construct: purchased Carna Biosciences 08-176
As to the kind of experiment: Homogeneous Time-Resolved Fluorescence (HTRF) assay for the recombinant human Syk enzyme. The assay is classed as biochemical. The following applies: ATP 25 μM, 10-dose titration, read-out: rhSYK Activity. The method, boiled down: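 Recombinant GST-hSyk ([…]) was preincubated 10 min at room temperature with inhibitor (0.1% DMSO) in Tris pH 7.5, then reacted for 45 min with 250 nM biotinylated peptide, 5 mM Mg and 25 μM ATP. Phosphorylation was detected by HTRF (Eu-anti-phosphotyrosine/SA-APC). IC50 was derived from a 10-dose titration (10 μM–0.508 nM) with a 4-parameter fit.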
`Cc1cc(Nc2nccc(C(F)(F)F)n2)cc(-n2cnc([C@]3(O)CC[C@](C)(C(=O)O)CC3)c2)c1` [Example 20, trans-4-hydroxy-1-methyl-4-[1-(3-methyl-5-{[4-(trifluoromethyl)-pyrimidin-2-yl]amino)-phenyl)-1H-imidazol-4-yl]cyclohexanecarboxylic acid]: the pIC50 was not below 7.00.

Regarding `CCOC(=O)C(C)(C)[C@H]1CC[C@](O)(c2cn(-c3cc(C)cc(Nc4cc(C(F)(F)F)ccn4)n3)cn2)CC1` [Example 23, Ethyl 2-{cis-4-hydroxy-4-[1-(4-methyl-6-{[4-(trifluoromethyl)pyridin-2-yl]amino}pyridin-2-yl)-1H-imidazol-4-yl]cyclohexyl}-2-methylpropanoate], the pIC50 was not below 7.00.

Regarding `Cc1cc(Nc2nccc(C(F)(F)F)n2)cc(-n2cnc([C@@]3(O)CC[C@@](C)(C(=O)O)C[C@@H]3O)c2)c1` (single isomer, unassigned) [5 (isomer 1)], the pIC50 was not below 7.00.

`COC(=O)CCc1cn(-c2cc(Nc3nccc(C(F)(F)F)n3)cc(N3CCOCC3)c2)cn1` [Example 106, Methyl 3-[1-(3-morpholin-4-yl-5-{[4-(trifluoromethyl)pyrimidin-2-yl]amino}-phenyl)-1H-imidazol-4-yl]propanoate]: the pIC50 is not below 7.00.

Regarding `Cc1ccnc(Nc2cc(C)cc(-n3cnc([C@]4(O)CC[C@@H](OC(=O)c5ccccc5)CC4)c3)n2)c1` [Example 51, cis-4-hydroxy-4-(1-{4-methyl-6-[(4-methylpyridin-2-yl)amino]pyridin-2-yl}-1H-imidazol-4-yl)cyclohexyl benzoate], the pIC50 was not below 7.00.

In the case of `Cc1cc(Nc2nccc(C(F)(F)F)n2)cc(-n2cnc(C3(O)CCNC(=O)CC3)c2)c1` (stereo not drawn) [Example 109, 5-hydroxy-5-[1-(3-methyl-5-{[4-(trifluoromethyl)pyrimidin-2-yl]amino}phenyl)-1H-imidazol-4-yl]azepan-2-one], the pIC50 is not below 7.00.

On to `CC(C)(O)c1cn(-c2cc(Nc3nccc(C(F)(F)F)n3)cc(N3CCOCC3)c2)cn1` [Example 107, 2-[1-(3-morpholin-4-yl-5-{[4-(trifluoromethyl)pyrimidin-2-yl]amino}-phenyl)-1H-imidazol-4-yl]propan-2-ol], for which the pIC50 was not below 7.00.

For `Cc1cc(Nc2nccc(C(F)(F)F)n2)cc(-n2cnc(C3(O)CCC(C(=O)O)CC3)c2)c1` (stereo not drawn) [Example 35, trans-4-hydroxy-4-[1-(3-methyl-5-[[4-(trifluoromethyl)pyrimidin-2-yl]amino}phenyl)-1H-imidazol-4-yl]cyclohexanecarboxylic acid], the pIC50 is not below 7.00.

As for `Cc1cc(Nc2nccc(C)n2)cc(-n2cnc([C@]3(O)CC[C@@H](O)CC3)c2)c1` [Example 38, Cis-1-(1-{3-methyl-5-[(4-methylpyrimidin-2-yl)amino]phenyl}-1H-imidazol-4-yl)cyclohexane-1,4-diol], the pIC50 is not below 7.00.

`Cc1cc(Nc2nccc(C(F)(F)F)n2)cc(-n2cnc(C3(O)CCC(=O)CC3)c2)c1` [Example 53, 4-hydroxy-4-[1-(3-methyl-5-{[4-(trifluoromethyl)pyrimidin-2-yl]amino}phenyl)-1H-imidazol-4-yl]cyclohexanone]: the pIC50 was not below 7.00.

In the case of `Cc1cc(Nc2nccc(C(F)(F)F)n2)cc(-n2cnc(C(C)(O)[C@H]3CC[C@H](C(=O)O)CC3)c2)c1` (relative stereo) [Example 10, trans-4-{1-hydroxy-1-[1-(3-methyl-5-{[4-(trifluoromethyl)pyrimidin-2-yl]amino}phenyl)-1H-imidazol-4-yl]ethyl}-cyclohexanecarboxylic acid], the pIC50 was not below 7.00.

For `Cc1cc(Nc2cc(C)c(F)cn2)nc(-n2cnc([C@]3(O)CC[C@@H](OC(=O)c4ccccc4)CC3)c2)c1` [Example 48, cis-4-(1-{6-[(5-fluoro-4-methylpyridin-2-yl)amino]-4-methylpyridin-2-yl}-1H-imidazol-4-yl)-4-hydroxycyclohexyl benzoate], the pIC50 was not below 7.00.

Regarding `Cc1cc(Nc2cc(C(F)(F)F)ccn2)nc(-n2cnc([C@]3(O)CC[C@H](O)CC3)c2)c1` [Example 61, trans-1-[1-(4-methyl-6-{[4-(trifluoromethyl)pyridin-2-yl]amino}pyridin-2-yl)-1H-imidazol-4-yl]cyclohexane-1,4-diol], the pIC50 is not below 7.00.

Take `Cc1cc(Nc2nccc(C)n2)cc(-n2cnc(C(C)(O)[C@H]3CC[C@H](C(=O)O)CC3)c2)c1` (relative stereo) [Example 9, trans-4-[1-hydroxy-1-(1-{3-methyl-5-[(4-methyl-pyrimidin-2-yl)amino]-phenyl}-1H-imidazol-4-yl)ethyl]cyclohexane-carboxylic acid]: the pIC50 is not below 7.00.

On to `Cc1cc(Nc2nccc(C3CC3)n2)cc(-n2cnc([C@]3(O)CC[C@@H](O)CC3)c2)c1` [Example 40, cis-1-(1-{3-[(4-cyclopropylpyrimidin-2-yl)amino]-5-methylphenyl}-1H-imidazol-4-yl)cyclohexane-1,4-diol], for which the pIC50 is not below 7.00.

In the case of `O=C(c1cn(-c2cccc(Nc3nccc(C(F)(F)F)n3)c2)cn1)N1CCCC1` [Example 70, Pyrrolidin-1-yl[1-(3-{[4-(trifluoromethyl)pyrimidin-2-yl]amino}phenyl)-1H-imidazol-4-yl]methanone], the pIC50 was 6.00 to 7.00.

As to `Cc1ccnc(Nc2cccc(-n3cnc(C(C)(C)O)c3)n2)c1` [Example 100, 2-(1-{6-[(4-methylpyridin-2-yl)amino]pyridin-2-yl}-1H-imidazol-4-yl)propan-2-ol], the pIC50 was 6.00 to 7.00.

With `Cc1cc(Nc2nccc(C(F)(F)F)n2)cc(-n2cc(C(=O)O)nc2C)c1` [Example 67, 2-Methyl-1-(3-methyl-5-{[4-(trifluoromethyl)pyrimidin-2-yl]amino}phenyl)-1H-imidazole-4-carboxylic acid], the pIC50 is not below 7.00.

As to `Cc1cc(Nc2cc(C)c(Cl)cn2)nc(-n2cnc([C@]3(O)CC[C@@H](O)CC3)c2)c1` [Example 44, cis-1-(1-{6-[(5-chloro-4-methylpyridin-2-yl)amino]-4-methylpyridin-2-yl}-1H-imidazol-4-yl)cyclohexane-1,4-diol], the pIC50 was not below 7.00.

In the case of `Cc1cc(Nc2nccc(C(F)(F)F)n2)cc(-n2cnc(C(=O)N3CCCC3)c2)c1` [Example 88, N-{3-methyl-5-[4-(pyrrolidin-1-ylcarbonyl)-1H-imidazol-1-yl]phenyl}-4-(trifluoromethyl)pyrimidin-2-amine], the pIC50 was not below 7.00.

On to `Cc1cc(Nc2nccc(C(F)(F)F)n2)cc(-n2cnc([C@]3(O)CC[C@@H](O)CC3)c2)c1` [Example 37, Cis-1-[1-(3-methyl-5-{[4-(trifluoromethyl)pyrimidin-2-yl]amino}phenyl)-1H-imidazol-4-yl]cyclohexane-1,4-diol], for which the pIC50 is not below 7.00.

Turning to `Cc1cc(Nc2nccc(C3CC3)n2)cc(-n2cnc(CCC(=O)O)c2)c1` [Example 75, 3-(1-{3-[(4-cyclopropylpyrimidin-2-yl)amino]-5-methylphenyl}-1H-imidazol-4-yl)propanoic acid], the pIC50 is not below 7.00.

For the compound `Cc1cc(Nc2nccc(C(F)(F)F)n2)cc(-n2cnc(C(C)(O)CO)c2)c1` (racemic) [Example 113, (rac)-2-[1-(3-Methyl-5-{[4-(trifluoromethyl)pyrimidin-2-yl]amino}phenyl)-1H-imidazol-4-yl]propane-1,2-diol], the pIC50 was not below 7.00.

Staying with this assay, now noted: ATP 25 μM, 10-dose titration, read-out: rhSYK IC50.
`Cc1cc(Nc2nccc(C(F)(F)F)n2)cc(-n2cnc(C3(O)CCNC(=O)CC3)c2)c1` (stereo not drawn) [Example 109, 5-hydroxy-5-[1-(3-methyl-5-{[4-(trifluoromethyl)pyrimidin-2-yl]amino}phenyl)-1H-imidazol-4-yl]azepan-2-one]: the pIC50 is 7.71.

`Cc1cc(Nc2nccc(C(F)(F)F)n2)cc(-n2cnc(C(C)(O)[C@H]3CC[C@H](C(=O)O)CC3)c2)c1` (relative stereo) [Example 10, trans-4-{1-hydroxy-1-[1-(3-methyl-5-{[4-(trifluoromethyl)pyrimidin-2-yl]amino}phenyl)-1H-imidazol-4-yl]ethyl}-cyclohexanecarboxylic acid]: the pIC50 was 8.75.

As for `Cc1cc(Nc2nccc(C)n2)cc(-n2cnc(C(C)(O)[C@H]3CC[C@H](C(=O)O)CC3)c2)c1` (relative stereo) [Example 9, trans-4-[1-hydroxy-1-(1-{3-methyl-5-[(4-methyl-pyrimidin-2-yl)amino]-phenyl}-1H-imidazol-4-yl)ethyl]cyclohexane-carboxylic acid], the pIC50 is 7.83.

In the case of `Cc1cc(Nc2nccc(C(F)(F)F)n2)cc(-n2cnc([C@]3(O)CC[C@@H](O)CC3)c2)c1` [Example 37, Cis-1-[1-(3-methyl-5-{[4-(trifluoromethyl)pyrimidin-2-yl]amino}phenyl)-1H-imidazol-4-yl]cyclohexane-1,4-diol], the pIC50 was 8.43.
